#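 These data come from cells grown in 96-well plates and exposed to compound for 48 hours at five concentrations. Here, GI50 denotes the concentration required for 50% inhibition of growth.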 Calls of active or inactive are those of the source. Rule as the data show it: active = GI50 up to about 1.1 µM and inactive = higher.
# Tests used:
# Experiment in all cases: NCI anticancer screen, dose series, 48 h
# HL-60 = tested on: HL-60
# HCC 2998 = tested on: HCC 2998
# HCT-15 = tested on: HCT-15
# NCI-H522 = tested on: NCI-H522
# SNB-19 = tested on: SNB-19
# LXFL 529 = tested on: LXFL 529
# RXF 393 = tested on: RXF 393
# SNB-75 = tested on: SNB-75
# NCI-H460 = tested on: NCI-H460
# M19-MEL = tested on: M19-MEL
# LOX IMVI = tested on: LOX IMVI
# DMS-273 = tested on: DMS-273
# Malme-3M = tested on: Malme-3M
# NCI-H226 = tested on: NCI-H226
# HOP-92 = tested on: HOP-92
# SF-295 = tested on: SF-295
# HOP-62 = tested on: HOP-62
# COLO 205 = tested on: COLO 205
# OVCAR-3 = tested on: OVCAR-3
# U-251 = tested on: U-251
# KM-20L2 = tested on: KM-20L2
# TK-10 = tested on: TK-10
# SK-MEL-28 = tested on: SK-MEL-28
# SW-620 = tested on: SW-620
# M14 = tested on: M14
# UACC-257 = tested on: UACC-257
# XF498 = tested on: XF498
# IGROV-1 = tested on: IGROV-1
# UO-31 = tested on: UO-31
# HT-29 = tested on: HT-29
# SK-MEL-5 = tested on: SK-MEL-5
# DLD-1 = tested on: DLD-1
# UACC-62 = tested on: UACC-62
# SK-OV-3 = tested on: SK-OV-3
# OVCAR-4 = tested on: OVCAR-4
# SF-268 = tested on: SF-268
# OVCAR-8 = tested on: OVCAR-8
# SNB-78 = tested on: SNB-78
# 786-0 = tested on: 786-0
# HCT-116 = tested on: HCT-116
# A498 = tested on: A498
# NCI-H23 = tested on: NCI-H23
# SR = tested on: SR
# MOLT-4 = tested on: MOLT-4
# CCRF-CEM = tested on: CCRF-CEM
# SN12C = tested on: SN12C
# SF-539 = tested on: SF-539
# ACHN = tested on: ACHN
# CAKI-1 = tested on: CAKI-1
# EKVX = tested on: EKVX
# K562 = tested on: K562
# A549 = tested on: A549
# DMS-114 = tested on: DMS-114
# KM12 = tested on: KM12
# RPMI-8226 = tested on: RPMI-8226
# OVCAR-5 = tested on: OVCAR-5
# SK-MEL-2 = tested on: SK-MEL-2
smiles,measurement,setting,value
O=C(/C=C1/Nc2ccc([N+](=O)[O-])cc2NC1O)c1cccc([N+](=O)[O-])c1 (stereo unspecified),GI50,HL-60,32.8 µM (inactive)
same,GI50,HCC 2998,53.5 µM (inactive)
same,GI50,HCT-15,23.5 µM
same,GI50,NCI-H522,18.7 µM (inactive)
same,GI50,SNB-19,> 100 µM (inactive)
same,GI50,LXFL 529,19.9 µM (inactive)
same,GI50,RXF 393,23.6 µM (inactive)
same,GI50,SNB-75,46.3 µM (inactive)
same,GI50,NCI-H460,39.2 µM (inactive)
same,GI50,M19-MEL,58.3 µM (inactive)
same,GI50,LOX IMVI,22.2 µM (inactive)
same,GI50,DMS-273,16.3 µM (inactive)
same,GI50,Malme-3M,38.4 µM (inactive)
same,GI50,NCI-H226,34.8 µM (inactive)
same,GI50,HOP-92,> 100 µM (inactive)
same,GI50,SF-295,13.6 µM (inactive)
same,GI50,HOP-62,83.9 µM (inactive)
same,GI50,COLO 205,12.1 µM (inactive)
same,GI50,OVCAR-3,35.6 µM (inactive)
same,GI50,U-251,21 µM (inactive)
same,GI50,KM-20L2,25.4 µM (inactive)
same,GI50,TK-10,35 µM (inactive)
same,GI50,SK-MEL-28,39.8 µM (inactive)
same,GI50,SW-620,72.1 µM (inactive)
same,GI50,M14,21.5 µM (inactive)
same,GI50,UACC-257,82.4 µM (inactive)
same,GI50,XF498,> 100 µM (inactive)
same,GI50,IGROV-1,> 100 µM (inactive)
same,GI50,UO-31,35.9 µM (inactive)
same,GI50,HT-29,56.2 µM (inactive)
same,GI50,SK-MEL-5,70.5 µM (inactive)
same,GI50,DLD-1,17.3 µM (inactive)
same,GI50,UACC-62,81.7 µM (inactive)
same,GI50,SK-OV-3,20.3 µM (inactive)
same,GI50,OVCAR-4,4.16 µM (inactive)
same,GI50,SF-268,53.2 µM (inactive)
same,GI50,OVCAR-8,19.1 µM (inactive)
same,GI50,SNB-78,> 100 µM (inactive)
same,GI50,786-0,14 µM (inactive)
same,GI50,HCT-116,26.2 µM (inactive)
same,GI50,A498,> 100 µM (inactive)
same,GI50,NCI-H23,36.6 µM (inactive)
same,GI50,SR,> 100 µM (inactive)
same,GI50,MOLT-4,64.4 µM (inactive)
same,GI50,CCRF-CEM,14.5 µM (inactive)
same,GI50,SN12C,> 100 µM (inactive)
same,GI50,SF-539,20.7 µM (inactive)
same,GI50,ACHN,66.5 µM (inactive)
same,GI50,CAKI-1,56.9 µM (inactive)
same,GI50,EKVX,> 100 µM (inactive)
same,GI50,K562,30.3 µM (inactive)
same,GI50,A549,58.7 µM (inactive)
same,GI50,DMS-114,32.1 µM (inactive)
CC1=NN(C(=O)c2ccc(Cl)cc2)C(=O)/C1=C/c1c(O)cc(O)c2ccccc12,GI50,HL-60,> 100 µM (inactive)
same,GI50,HCC 2998,> 100 µM (inactive)
same,GI50,KM12,> 100 µM (inactive)
same,GI50,NCI-H522,> 100 µM (inactive)
same,GI50,SNB-19,> 100 µM (inactive)
same,GI50,LXFL 529,> 100 µM (inactive)
same,GI50,RXF 393,> 100 µM (inactive)
same,GI50,NCI-H460,> 100 µM (inactive)
same,GI50,M19-MEL,> 100 µM (inactive)
same,GI50,LOX IMVI,> 100 µM (inactive)
same,GI50,Malme-3M,> 100 µM (inactive)
same,GI50,HOP-92,> 100 µM (inactive)
same,GI50,SF-295,> 100 µM (inactive)
same,GI50,HOP-62,> 100 µM (inactive)
same,GI50,COLO 205,> 100 µM (inactive)
same,GI50,OVCAR-3,> 100 µM (inactive)
same,GI50,U-251,> 100 µM (inactive)
same,GI50,KM-20L2,> 100 µM (inactive)
same,GI50,TK-10,> 100 µM (inactive)
same,GI50,SK-MEL-28,> 100 µM (inactive)
same,GI50,SW-620,> 100 µM (inactive)
same,GI50,M14,> 100 µM (inactive)
same,GI50,UACC-257,> 100 µM (inactive)
same,GI50,XF498,> 100 µM (inactive)
same,GI50,IGROV-1,> 100 µM (inactive)
same,GI50,UO-31,> 100 µM (inactive)
same,GI50,HT-29,> 100 µM (inactive)
same,GI50,SK-MEL-5,> 100 µM (inactive)
same,GI50,DLD-1,> 100 µM (inactive)
same,GI50,UACC-62,> 100 µM (inactive)
same,GI50,SK-OV-3,> 100 µM (inactive)
same,GI50,OVCAR-4,> 100 µM (inactive)
same,GI50,SF-268,> 100 µM (inactive)
same,GI50,OVCAR-8,> 100 µM (inactive)
same,GI50,SNB-78,> 100 µM (inactive)
same,GI50,786-0,> 100 µM (inactive)
same,GI50,HCT-116,> 100 µM (inactive)
same,GI50,A498,> 100 µM (inactive)
same,GI50,NCI-H23,> 100 µM (inactive)
same,GI50,MOLT-4,> 100 µM (inactive)
same,GI50,RPMI-8226,> 100 µM (inactive)
same,GI50,CCRF-CEM,> 100 µM (inactive)
same,GI50,SN12C,> 100 µM (inactive)
same,GI50,SF-539,> 100 µM (inactive)
same,GI50,OVCAR-5,> 100 µM (inactive)
same,GI50,ACHN,> 100 µM (inactive)
same,GI50,CAKI-1,> 100 µM (inactive)
same,GI50,SK-MEL-2,> 100 µM (inactive)
same,GI50,EKVX,> 100 µM (inactive)
same,GI50,K562,> 100 µM (inactive)
same,GI50,A549,> 100 µM (inactive)
same,GI50,DMS-114,> 100 µM (inactive)
CC(=O)CNC(=O)OC(C)(C)C,GI50,HL-60,> 100 µM (inactive)
same,GI50,KM12,> 100 µM (inactive)
same,GI50,NCI-H522,> 100 µM (inactive)
same,GI50,SNB-19,> 100 µM (inactive)
same,GI50,RXF 393,> 100 µM (inactive)
same,GI50,SNB-75,> 100 µM (inactive)
same,GI50,NCI-H460,> 100 µM (inactive)
same,GI50,M19-MEL,> 100 µM (inactive)
same,GI50,DMS-273,> 100 µM (inactive)
same,GI50,Malme-3M,> 100 µM (inactive)
same,GI50,NCI-H226,> 100 µM (inactive)
same,GI50,HOP-92,> 100 µM (inactive)
same,GI50,SF-295,> 100 µM (inactive)
same,GI50,HOP-62,> 100 µM (inactive)
same,GI50,OVCAR-3,> 100 µM (inactive)
same,GI50,U-251,> 100 µM (inactive)
same,GI50,KM-20L2,> 100 µM (inactive)
same,GI50,TK-10,> 100 µM (inactive)
same,GI50,SK-MEL-28,> 100 µM (inactive)
same,GI50,SW-620,> 100 µM (inactive)
same,GI50,M14,> 100 µM (inactive)
same,GI50,UACC-257,> 100 µM (inactive)
same,GI50,XF498,> 100 µM (inactive)
same,GI50,IGROV-1,> 100 µM (inactive)
same,GI50,UO-31,> 100 µM (inactive)
same,GI50,HT-29,> 100 µM (inactive)
same,GI50,SK-MEL-5,> 100 µM (inactive)
same,GI50,DLD-1,> 100 µM (inactive)
same,GI50,UACC-62,> 100 µM (inactive)
same,GI50,SK-OV-3,> 100 µM (inactive)
same,GI50,OVCAR-4,> 100 µM (inactive)
same,GI50,SF-268,> 100 µM (inactive)
same,GI50,OVCAR-8,> 100 µM (inactive)
same,GI50,SNB-78,> 100 µM (inactive)
same,GI50,786-0,> 100 µM (inactive)
same,GI50,HCT-116,> 100 µM (inactive)
same,GI50,A498,> 100 µM (inactive)
same,GI50,NCI-H23,> 100 µM (inactive)
same,GI50,SR,> 100 µM (inactive)
same,GI50,MOLT-4,> 100 µM (inactive)
same,GI50,CCRF-CEM,> 100 µM (inactive)
same,GI50,SN12C,> 100 µM (inactive)
same,GI50,SF-539,> 100 µM (inactive)
same,GI50,OVCAR-5,> 100 µM (inactive)
same,GI50,ACHN,> 100 µM (inactive)
same,GI50,CAKI-1,> 100 µM (inactive)
same,GI50,SK-MEL-2,> 100 µM (inactive)
same,GI50,EKVX,> 100 µM (inactive)
same,GI50,K562,> 100 µM (inactive)
same,GI50,A549,> 100 µM (inactive)
same,GI50,DMS-114,> 100 µM (inactive)

# Reference: ChEMBL document CHEMBL1201862, “PubChem BioAssay data set” (2004)
